What all share (conditions): stereoisomer not certain
The nature of series [1]: RP, Merck Supelco Ascentis Express C18, 100 × 2.1 mm, 2 µm, 40 °C, 0.2 mL/min, estimated dead time 1.1 min; A: water + 0.1% formic acid, pH 3; B: acetonitrile + 0.1% formic acid, pH 3; gradient (min/%B) 0/5 2/5 17/99.9 20/99.9.
Series [2] can be described thus: RP, Merck Supelco Ascentis Express C18, 100 × 2.1 mm, 2 µm, 40 °C, 0.35 mL/min, estimated dead time 0.63 min; A: water + 0.1% formic acid, pH 3; B: acetonitrile + 0.1% formic acid, pH 3; gradient (min/%B) 0/5 2/5 17/99.9 20/99.9.
Series [3] in a line: RP, Merck Supelco Ascentis Express C18, 100 × 2.1 mm, 2 µm, 40 °C, 0.4 mL/min, estimated dead time 0.55 min; A: water + 0.1% formic acid, pH 3; B: acetonitrile + 0.1% formic acid, pH 3; gradient (min/%B) 0/5 2/5 17/99.9 20/99.9.
Assay in series [4]: as above
The source holds these as a separate data set.

Series [5] in a line: RP, Merck Supelco Ascentis Express C18, 100 × 2.1 mm, 2 µm, 40 °C, 0.2 mL/min, estimated dead time 1.1 min; A: water + 0.1% formic acid, pH 3; B: acetonitrile + 0.1% formic acid, pH 3; gradient (min/%B) 0/5 2/5 17/99.9 20/99.9. The source holds these as a separate data set.

On to `CC(=CC(=O)O)C(=O)O` [2-METHYLMALEATE], for which the LC retention time in series [1] is 2.44 min; in series [2], 1.35 min; in series [3] it was 0.99 min; in series [4] it was 1.16 min; in series [5], 2.46 min.

Consider `OCC(O)c1ccc(O)c(O)c1` (stereo not drawn) [3,4-DIHYDROXYPHENYLGLYCOL], for which the values for the LC retention time in series [1], in series [2] and in series [4] were 1.39 min, 0.783 min and 0.663 min, respectively.

Consider `O=Cc1cccc(O)c1` [3-HYDROXYBENZALDEHYDE], for which the LC retention time in series [1] is 5.47 min; in series [2], 3.94 min; in series [4] it was 3.59 min.

Consider `OCc1cccc(O)c1` [3-HYDROXYBENZYL ALCOHOL], for which the LC retention time was 3.97 min in series [1], 2.33 min in series [2] and 2.02 min in series [4].

Take `COc1cc(C(O)C(=O)O)ccc1O` (stereo not drawn) [3-METHOXY-4-HYDROXYMANDELATE]: the results for the LC retention time in series [1], in series [2] and in series [4] were 2.12 min, 1.21 min and 1.04 min, respectively.

With `CCC(C)C(=O)C(=O)O` (stereo not drawn) [3-METHYL-2-OXOVALERATE], the LC retention time in series [1] is 4.64 min; in series [2], 2.96 min; in series [4] it was 2.54 min.

Consider `Nc1ccc(C(=O)O)cc1` [4-AMINOBENZOATE], for which the LC retention time is 5.87 min in series [1], 4.3 min in series [2] and 3.93 min in series [4].

As for `Nc1ccccc1C(=O)O` [ANTHRANILATE], the LC retention time is 5.87 min in series [1], 4.29 min in series [2] and 3.93 min in series [4].

Turning to `CC(O)(CC(=O)O)C(=O)O` (stereo not drawn) [CITRAMALATE], the LC retention time was 1.49 min in series [1], 0.86 min in series [2], 0.76 min in series [3] and 0.717 min in series [4].

With `Cc1cc2nc3c(=O)[nH]c(=O)nc-3n(CC(O)C(O)C(O)COP(=O)(O)OP(=O)(O)OCC3OC(n4cnc5c(N)ncnc54)C(O)C3O)c2cc1C` (stereo not drawn) [FAD], the results for the LC retention time in series [1], in series [2] and in series [4] were 4.67 min, 3.77 min and 3.63 min, respectively.

Turning to `CCCCCC=CCC=CCC=CCCCCC(=O)O` [GAMMA-LINOLENATE], the LC retention time in series [1] is 16.2 min; in series [2] it was 14.5 min; in series [4] it was 14.1 min.

As for `C=C(CC(=O)O)C(=O)O` [ITACONATE], the LC retention time is 2.44 min in series [1]; 1.35 min in series [2]; 1.21 min in series [3]; 1.14 min in series [4]; 2.46 min in series [5].

`CC(C)CC(=O)C(=O)O` [KETOLEUCINE]: the results for the LC retention time in series [1], in series [2] and in series [4] were 4.65 min, 0.88 min and 0.77 min, respectively.

Consider `COC(=O)c1ccc(O)c(OC)c1` [METHYL VANILLATE], for which the LC retention time in series [1] is 5.99 min; in series [2] it was 3.91 min; in series [4], 3.63 min.

Take `COC(=O)CCCC(=O)O` [MONOMETHYLGLUTARATE]: the LC retention time is 3.99 min in series [1], 2.33 min in series [2] and 2.02 min in series [4].

For the compound `O=C(O)CCCC(=O)C(=O)O` [OXOADIPATE], the LC retention time in series [1] is 1.48 min; in series [2], 0.833 min; in series [3], 0.667 min; in series [4], 0.707 min.

With `CC1NCCc2cc(O)c(O)cc21` (stereo not drawn) [SALSOLINOL], the LC retention time in series [1] was 1.44 min; in series [2], 0.82 min; in series [4], 0.68 min.

As to `O=C(O)CCC(=O)O` [SUCCINATE], the LC retention time in series [1] was 1.49 min; in series [2], 0.827 min; in series [4] it was 0.73 min.

For `CC(CCC(=O)O)C1CCC2C3C(O)CC4CC(O)CCC4(C)C3CCC12C` (stereo not drawn) [URSODEOXYCHOLATE], the figures for the LC retention time in series [1], in series [2] and in series [4] were 12.2 min, 10.8 min and 10.5 min, respectively.

The record behind these values is the RepoRT retention time repository (doi:10.1007/s00216-021-03828-0).
